Data: ChEMBL document CHEMBL4732174, “Discovery of 6-(7-Nitro-2,1,3-benzoxadiazol-4-ylthio)hexanol Derivatives as Glutathione Transferase Inhibitors with Favorable Selectivity and Tolerated Toxicity” (J Med Chem, 2021)
In brackets after ≈: the same amount, converted by molar mass.

Tests used:
[1] = biological target: T1, Glutathione S-transferase P (Homo sapiens, UniProt P09211); assay: Inhibition of GSTP1-1 (unknown origin) using reduced GSH and CDNB as substrate incubated for 10 mins followed by substrate addition by microplate reader analysis
[2] = biological target: T2, Glutathione S-transferase Mu 2 (Homo sapiens, UniProt P28161); assay: Inhibition of GSTM2-2 (unknown origin) using reduced GSH and CDNB as substrate incubated for 10 mins followed by substrate addition by microplate reader analysis
T2 sequence (P28161 whole entry): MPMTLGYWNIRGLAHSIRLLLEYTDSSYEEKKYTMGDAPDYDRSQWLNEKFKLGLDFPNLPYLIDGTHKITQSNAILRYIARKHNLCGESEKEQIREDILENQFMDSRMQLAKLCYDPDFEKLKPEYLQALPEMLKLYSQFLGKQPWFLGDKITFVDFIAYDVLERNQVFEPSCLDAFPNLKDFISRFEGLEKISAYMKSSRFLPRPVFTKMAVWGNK

[3] = Water solubility of the compound measured by UV-Visible spectral analysis; format: physicochemical; conditions: water; read-out: solubility
[4] = biological target: T1, Glutathione S-transferase P; assay: Time dependent inhibition of GSTP1-1 (unknown origin) assessed as inhibition constant using reduced GSH and CDNB as substrate by spectrophotometric method
HUVEC = assay: Cytotoxicity against HUVEC assessed as reduction in cell viability incubated for 72 hrs by MTT assay; format: cell-based; conditions: Homo sapiens
143B [5] = assay: Antiproliferative activity against human 143B cells assessed as inhibition of cell proliferation incubated for 72 hrs by MTT assay; format: functional, cell-based
HOS = assay: Antiproliferative activity against human HOS cells assessed as inhibition of cell proliferation incubated for 72 hrs by MTT assay; format: functional, cell-based
143B [6] = assay: Induction of cell cycle arrest in human 143B cells assessed as accumulation at S phase at 2.5 uM incubated for 48 hrs by propidium iodide staining based flow cytometry (reference value: 32.03 %); format: functional
143B [7] = assay: Induction of cell cycle arrest in human 143B cells assessed as accumulation at G1 phase at 5 uM incubated for 48 hrs by propidium iodide staining based flow cytometry (reference value: 66.62 %); format: functional
143B [8] = assay: Induction of cell cycle arrest in human 143B cells assessed as accumulation at S phase at 10 uM incubated for 48 hrs by propidium iodide staining based flow cytometry (reference value: 32.03 %); format: functional
143B [9] = assay: Induction of apoptosis in human 143B cells assessed as apoptotic cells at 2.5 uM incubated for 24 hrs by Annexin V-FITC/PI double staining based flow cytometric analysis (reference value: 3.9%); format: functional
liver carboxylesterase = biological target: T3, liver carboxylesterase (Sus scrofa, UniProt Q29550); assay: Stability of the compound assessed as pig liver carboxylesterase-mediated compound hydrolysis at 10 mM measured after 12 hrs by HPLC analysis; format: ADME; conditions: read-out: Drug degradation
T3 sequence (Q29550 whole entry): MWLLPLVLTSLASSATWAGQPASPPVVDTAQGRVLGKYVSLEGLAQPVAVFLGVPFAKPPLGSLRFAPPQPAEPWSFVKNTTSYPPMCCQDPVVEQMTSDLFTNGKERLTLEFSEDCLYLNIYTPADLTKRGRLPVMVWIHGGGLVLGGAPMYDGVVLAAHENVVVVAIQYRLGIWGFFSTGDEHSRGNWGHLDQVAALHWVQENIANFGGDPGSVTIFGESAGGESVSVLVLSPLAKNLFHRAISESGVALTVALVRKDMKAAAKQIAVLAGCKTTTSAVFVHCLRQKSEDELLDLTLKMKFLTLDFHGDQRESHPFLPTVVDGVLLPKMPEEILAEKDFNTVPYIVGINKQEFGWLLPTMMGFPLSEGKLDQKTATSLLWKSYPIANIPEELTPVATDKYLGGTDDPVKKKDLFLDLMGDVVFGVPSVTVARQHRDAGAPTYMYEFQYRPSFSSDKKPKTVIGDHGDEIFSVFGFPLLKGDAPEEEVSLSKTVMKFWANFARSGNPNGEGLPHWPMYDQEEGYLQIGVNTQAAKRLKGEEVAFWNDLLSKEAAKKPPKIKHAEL

143B [10] = assay: Antitumor activity against human 143B cells xenografted in BALB/c nude mouse assessed as tumor growth inhibition at 5 mg/kg, po administered once daily for 28 consecutive days relative to control; format: functional; conditions: 672 h, time 28 day, read-out: TGI
[11] = Toxicity in BALB/c nude mouse xenografted with human 143B cells assessed as cellular inflammation in heart at 5 to 20 mg/kg, po administered once daily for 28 consecutive days by hematoxylin-eosin staining based assay; format: organism-based; conditions: in vivo, 672 h, dose 5-20 mg/kg, time 28 day
[12] = Toxicity in BALB/c nude mouse xenografted with human 143B cells assessed as cellular inflammation in liver at 5 to 20 mg/kg, po administered once daily for 28 consecutive days by hematoxylin-eosin staining based assay; format: organism-based; conditions: in vivo, 672 h, dose 5-20 mg/kg, time 28 day
[13] = Toxicity in BALB/c nude mouse xenografted with human 143B cells assessed as cellular inflammation in spleen at 5 to 20 mg/kg, po administered once daily for 28 consecutive days by hematoxylin-eosin staining based assay; format: organism-based; conditions: in vivo, 672 h, dose 5-20 mg/kg, time 28 day
[14] = Toxicity in BALB/c nude mouse xenografted with human 143B cells assessed as cellular inflammation in lung at 5 to 20 mg/kg, po administered once daily for 28 consecutive days by hematoxylin-eosin staining based assay; format: organism-based; conditions: in vivo, 672 h, dose 5-20 mg/kg, time 28 day
[15] = Toxicity in BALB/c nude mouse xenografted with human 143B cells assessed as cellular inflammation in kidney at 5 to 20 mg/kg, po administered once daily for 28 consecutive days by hematoxylin-eosin staining based assay; format: organism-based; conditions: in vivo, 672 h, dose 5-20 mg/kg, time 28 day
[16] = Toxicity in BALB/c nude mouse xenografted with human 143B cells assessed as spleen edema at 5 to 20 mg/kg, po administered once daily for 28 consecutive days by hematoxylin-eosin staining based assay; format: organism-based; conditions: in vivo, 672 h, dose 5-20 mg/kg, time 28 day
[17] = Toxicity in BALB/c nude mouse xenografted with human 143B cells assessed as necrosis in liver at 5 to 20 mg/kg, po administered once daily for 28 consecutive days by hematoxylin-eosin staining based assay; format: organism-based; conditions: in vivo, 672 h, dose 5-20 mg/kg, time 28 day
[18] = Toxicity in BALB/c nude mouse xenografted with human 143B cells assessed as necrosis in kidney at 5 to 20 mg/kg, po administered once daily for 28 consecutive days by hematoxylin-eosin staining based assay; format: organism-based; conditions: in vivo, 672 h, dose 5-20 mg/kg, time 28 day
[19] = Toxicity in BALB/c nude mouse xenografted with human 143B cells assessed as body weight loss at 20 mg/kg, po administered once daily for 28 consecutive days and measured every 3 days; format: organism-based; conditions: in vivo, 672 h, time 28 day

T1 sequence (P09211 whole entry): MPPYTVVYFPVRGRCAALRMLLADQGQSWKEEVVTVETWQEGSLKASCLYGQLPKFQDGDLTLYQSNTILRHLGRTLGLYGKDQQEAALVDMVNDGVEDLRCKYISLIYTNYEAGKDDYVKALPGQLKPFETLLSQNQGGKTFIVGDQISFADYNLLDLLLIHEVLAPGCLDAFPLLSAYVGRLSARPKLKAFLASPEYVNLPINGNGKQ

IC50 [1]: 160 nM | IC50 [2]: 90 nM | solubility [3]: 9000 µg/mL (≈ 18.7 mM) | Ki [4]: 170 nM | metabolised at 12 h, 10000 µM (liver carboxylesterase): 33%
Structure (SMILES): CN(C)CCCNC(=O)CCC(=O)OCCCCCCSc1ccc([N+](=O)[O-])c2nonc12
IC50 (HUVEC): 1600 nM | IC50 (143B [5]): 1180 nM | IC50 (HOS): 1850 nM | Activity (143B [6]): 40.75% | Activity (143B [7]): 49.82% | Activity (143B [8]): 30.32% | Activity (143B [9]): 46.5% | inhibition in vivo at 5 mg/kg (143B [10]): 46.4% | Activity [11]: Non-Toxic | Activity [12]: Non-Toxic | Activity [13]: Non-Toxic | Activity [14]: Non-Toxic | Activity [15]: Non-Toxic | Activity [16]: Non-Toxic | Activity [17]: Non-Toxic | Activity [18]: Non-Toxic | Activity [19]: Non-Toxic
